Assay [1] has as its system MIA PaCa-2 (pancreatic carcinoma) cells, p53R248W. The assay is classed as cell-based. As for the experimental part:
(§1) Cells were cultured in 96 wells plates with 2500-4000 cells/well. Serial dilutions of different peptides were added and the plates incubated for additional 48 h at 37° C. Then medium was removed and cell viability was determined by staining the cells with crystal violet (0.05%) in methanol/PBS (1:5, v/v), for 10 min, followed by 3 washes with PBS. 10% acetic acid was added to each well for 10 min. OD was determined at 595 nm.
(§2) The IC50 tables presented in FIGS. 17-20 are from several representative experiments performed on cell lines expressing several p53 hotspot mutations, as well as control non-transformed cells: […]

For assay [2], the system named is PANC1 (pancreatic carcinoma) cells, p53R273H. The assay is classed as cell-based. Here is the method: as §1, §2
The test system of assay [3] is panel of cell lines expressing mutp53. It counts as cell-based. Here is the method:
as §1
(§3) The IC50 tables presented in FIGS. 17-20 are from several representative experiments performed on cell lines expressing several p53 hotspot mutations, as well as control non-transformed cells:
Proline residue position—Based on alanine scanning and molecular dynamics analyses, it is believed that the proline residue at the 6th position from the N-terminal is critical for the peptide's 3D structure and provides some rigidity required for peptide binding and activity. Therefore, it was hypothesized that a change in orientation or tetrahedral angle might increase the affinity of the peptide for p53. Six new peptides were synthesized replacing this proline residue with proline analogs (pCAPs 708-712, and pCAP-716, SEQ ID NOS: 6-10 and 14, respectively). This set of peptides was tested for activity on a panel of cell lines expressing mutp53, and compared it to pCAP-674 (SEQ ID NO: 27) and to the scrambled sequence peptides pCAP-721 (SEQ ID NO: 19) and pCAP-722 (SEQ ID NO: 20).

Assay [4] relates to WI38 (non-transformed fibroblasts) cells, wtp53. It counts as cell-based. Here is the method: as §1, §2
Assay [5] concerns SW-480 (colon carcinoma) cells, p53R273H, P309S. It counts as cell-based. As for the experimental part:
as §1, §2

In assay [6] the test system is PC9 (lung carcinoma) cells, p53R248Q. The assay is classed as cell-based. Particulars: read-out: PC9 IC50. As for the experimental part:
as §1, §2

Assay [7] deals with RXF-393 (renal carcinoma) cells, p53R175H. It counts as cell-based, human. As for the experimental part: as §1, §3
Fatty acid position. Lead peptides were modified with N-terminal myristic acid to enable the penetration of peptides across the cell membrane. Although myristic acid is usually the default choice for cell permeability, additional options were explored of longer fatty acids and to examine the effect on peptide efficacy in terms of cancer cell killing. A standard crystal violet viability test was performed on human renal carcinoma RXF-393 cells, comparing the original pCAP-553, which has myristic acid (C14), with 4 derivative peptides modified with longer fatty acid chains: palmitic (C16), stearic (C18), […] (C20) and behenic (C22).

Where two headings read alike, the source gives them in different places. Where a SMILES comes first, the peptide text is derived from it. Bridges are numbered along the chain shown (N, C = ends). [ ]: non-standard residue; d: D form. The star is where a group is joined. Stearoyl = CCCCCCCCCCCCCCCCCC(=O)*; Dab = NCC[C@H](N)C(=O)O; Dmp = di-methyl proline Bounds are passed on as bounds.

A word on the IC50: it is the concentration at which inhibition is half-maximal. On to `CCCCCCCCCCCCCCCCCC(=O)N[C@@H](CCCNC(=N)N)C(=O)N[C@@H](CCCNC(=N)N)C(=O)N[C@@H](Cc1c[nH]cn1)C(=O)N[C@@H](CO)C(=O)N[C@H]1CCCCNC(=O)[C@H](CC(=O)O)NC(=O)[C@@H]2CCCN2C(=O)[C@H](CCN)NC(=O)[C@@H]2CCCN2C1=O` [pCAP-713, str-RRHSKP(Dab)PD-Cyc] (Stearoyl-RRHSKP[Dab]PD; lactam 5-C), for which the figures for the half-inhibitory concentration (IC50) in assay [1] (48 h), in assay [2] (48 h) and in assay [3] (48 h) were 300 nM, 1050 nM and 100 to 1000 nM, respectively. In addition, the “activity in viability assays compared with other peptides (in words)” value in assay [3] is listed as “highest activity”. The “increase in activity over pCAP-674” value in assay [3] (FIGS. 18-20) is recorded as 1.5-3 folds. Moreover, the “increase in activity over the original pCAP-553” value in assay [3] (FIGS. 18-20) is 4-10 folds.

For `CCCCCCCCCCCCCCCCCC(=O)N[C@@H](CCCNC(=N)N)C(=O)N[C@@H](CCCNC(=N)N)C(=O)N[C@@H](Cc1c[nH]cn1)C(=O)N[C@@H](CO)C(=O)N[C@@H](C(=O)N1CCC[C@H]1C(=O)N[C@@H](CCN)C(=O)N1CCC[C@H]1C(=O)N[C@@H](CC(=O)O)C(N)=O)C(C)C` [pCAP-717, str-RRHSvP(Dab)PD-NH2] (Stearoyl-RRHS[dV]P[Dab]PD-NH2), the IC50 was 300 nM in assay [1] (48 h), 2150 nM in assay [2] (48 h), 35000 nM in assay [4] (48 h) and 1200 nM in assay [5] (48 h).

For `CCCCCCCCCCCCCCCCCC(=O)N[C@@H](CCCNC(=N)N)C(=O)N[C@@H](CCCNC(=N)N)C(=O)N[C@@H](Cc1c[nH]cn1)C(=O)N[C@@H](CO)C(=O)N[C@@H](C(=O)N1CCC[C@@H]1C(=O)N[C@@H](CCN)C(=O)N1CCC[C@H]1C(=O)N[C@@H](CC(=O)O)C(=O)NCC(=O)N[C@@H](CCC(=O)O)C(=O)N[C@@H](C)C(=O)O)C(C)C` [pCAP-720, str-RRHSvp(Dab)PDGEA] (Stearoyl-RRHS[dV][dP][Dab]PDGEA-OH; C-terminus assumed), the IC50 in assay [1] (48 h) was 300 nM; in assay [2] (48 h), 1240 nM; in assay [4] (48 h) it was 32000 nM; in assay [5] (48 h), 1200 nM. The “activity in viability assays compared with other peptides (in words)” value in assay [3] is on record as “comparable activity to pCAP-717”.

For `CCCCCCCCCCCCCCCCCC(=O)N[C@@H](CC(=O)O)C(=O)N1CCC[C@H]1C(=O)N[C@@H](Cc1c[nH]cn1)C(=O)N[C@H]1CCCCNC(=O)[C@H](CCCNC(=N)N)NC(=O)[C@H](CCN)NC(=O)[C@H](CCCNC(=N)N)NC(=O)[C@@H]2CCCN2C(=O)[C@H](CO)NC1=O` [pCAP-725, str-DPHKSPR(Dab)R-Cyc, reference compound] (Stearoyl-DPHKSPR[Dab]R; lactam 4-C), the IC50 in assay [1] (48 h) is more than 30000 nM; in assay [2] (48 h) it was more than 40000 nM; in assay [4] (48 h) it was more than 40000 nM; in assay [5] (48 h), more than 30000 nM.

As to “str-RRHSv(Dmp)(Dab)PD-NH2 (Stearoyl-RRHS[dV][Dmp][Dab]PD-NH2) [pCAP-716, Dmp—Di-methyl proline]”, the IC50 in assay [1] (FIG. 20, read-out: MIAPaca IC50) came to 300 nM; in assay [2] (FIG. 19, read-out: PANCI IC50) it was 2000 nM; in assay [4] (FIG. 19, read-out: WI38 IC50), 33000 nM; in assay [5] (FIG. 20, read-out: SW-480 IC50) it was 1000 nM; in assay [6] (FIG. 19) it was 630 nM; in assay [6] (FIG. 20), 700 nM. The half-maximal inhibitory concentration (IC50) in assay [7] (FIG. 19, read-out: RXF IC50) is 420 nM; in assay [7] (FIG. 20, read-out: RXF 393 IC50) it was 300 nM. For the same compound, the “activity in viability assays compared with other peptides (in words)” value in assay [3] is “consistently modestly improved activity over pCAP-674”; in assay [3] (listed as 716) it was “highest activity”.

The values are drawn from US20230127559A1, “PEPTIDE ANALOGS AND USE OF SAME IN TREATING DISEASES, DISORDERS OR CONDITIONS ASSOCIATED WITH MUTANT P53 PROTEIN” (YEDA RESEARCH AND DEVELOPMENT CO. LTD., priority 2020, published 2023).
